Source: US8273738B2, “Imidazole derivatives” (priority 2006, dated 2012)
Where a name gives a salt, the structure may show the parent alone. Read-outs that look alike come from different tables or passages of the source.

Tests used:
[1] = target: T1, CB2 receptor (Rattus norvegicus, UniProt Q9QZN9); assay: Cannabinoid CB2 receptor-binding activity ([3H]CP55940 binding experiment), rat spleen membrane specimen
T1 construct: from tissue; host or cells: rat spleen membrane specimen
T1 sequence (Q9QZN9 1-360): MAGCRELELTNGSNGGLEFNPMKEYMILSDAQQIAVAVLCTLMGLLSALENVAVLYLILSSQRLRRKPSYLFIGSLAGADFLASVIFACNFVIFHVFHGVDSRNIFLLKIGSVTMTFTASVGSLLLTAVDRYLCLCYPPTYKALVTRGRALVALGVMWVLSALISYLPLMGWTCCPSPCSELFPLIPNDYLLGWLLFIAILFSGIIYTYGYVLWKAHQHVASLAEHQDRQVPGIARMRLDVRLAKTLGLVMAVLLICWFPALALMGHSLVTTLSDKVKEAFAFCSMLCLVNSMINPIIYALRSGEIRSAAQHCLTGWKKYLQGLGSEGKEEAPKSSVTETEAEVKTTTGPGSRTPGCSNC
Experimental: A test was carried out according to the method of Hillard et al. [The Journal of Pharmacology and Experimental Therapeutics, vol. 289, p. 1427 (1999)]. A rat forebrain membrane specimen and a rat spleen membrane specimen were prepared and used in a binding experiment for a CB1 receptor and a binding experiment for a CB2 receptor, respectively. The membrane specimen (forebrain: final concentration of 0.5 mg of protein/mL, spleen: final concentration of 2 mg of protein/mL) was incubated together with a test compound and [^3H]CP55940 (manufactured by PerkinElmer) ((−)-cis-3-[2-hydroxy-[3,5-^3H]-4-(1,1-dimethylheptyl)phenyl]-trans-4-(3-hydroxypropyl)cyclohexanol)) (final concentration: 0.5 nmol/L) in an assay buffer (50 mmol/L Tris-HCl buffer (pH 7.4), 1 mmol/L EDTA and 3 mmol/L MgCl2) containing 0.1% bovine serum albumin at 25° C. for 1 hour, and the resulting mixture was filtered using a glass filter GF/C (manufactured by Whatman) treated with 1% polyethyleneimine. After the glass filter was washed with the assay buffer containing 0.2% bovine serum albumin, the radioactivity on the glass filter was measured using a liquid scintillation counter (TRI-CARB 2700TR, manufactured by Packard). The binding amount in the presence of 10 μmol/L […] (manufactured by Tocris) ((R)-(+)-[2,3-dihydro-5-methyl-3-(4-morpholinylmethyl)pyrrolo[1,2,3-de]-1,4-benzoxazin-6-yl]-1-naphthalenylmethanone) was considered to be a non-specific binding amount, and a difference between the total binding amount and the non-specific binding amount was considered to be a specific binding amount. The 50% inhibitory concentration (IC50 value) of the test compound against the specific binding was obtained, and the Ki value of the test substance was calculated from the 50% inhibitory concentration and the Kd value of the [^3H]CP55940 binding.

[2] = target: T2, human CB2 receptor (Homo sapiens, UniProt P34972); assay: GTPγS binding experiment via human CB2 receptor (membrane fraction of CHO-K1 cells); format: biochemical; conditions: for Emax: read-out: Emax value (maximum effect of CP55940 as 100%)
T2 construct: expressed in transfected cells
T2 sequence (P34972 whole entry): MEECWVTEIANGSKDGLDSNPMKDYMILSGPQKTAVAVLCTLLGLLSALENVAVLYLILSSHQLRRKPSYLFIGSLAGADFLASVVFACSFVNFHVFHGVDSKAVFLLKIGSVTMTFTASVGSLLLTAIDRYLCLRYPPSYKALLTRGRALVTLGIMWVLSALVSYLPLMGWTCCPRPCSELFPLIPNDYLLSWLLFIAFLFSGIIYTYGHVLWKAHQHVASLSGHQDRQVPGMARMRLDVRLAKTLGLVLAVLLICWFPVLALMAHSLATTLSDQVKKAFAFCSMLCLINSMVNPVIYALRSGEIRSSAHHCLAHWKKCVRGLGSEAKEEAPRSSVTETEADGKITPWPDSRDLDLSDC
Experimental: A test was carried out according to the method of Hillard et al. [The Journal of Pharmacology and Experimental Therapeutics, vol. 289, p. 1427 (1999)]. As for a membrane specimen, a membrane fraction was prepared from CHO-K1 cells in which a human CB2 receptor [Nature, vol. 365, pp. 61-65 (1993)] was stably expressed and used. The membrane specimen (final concentration: 40 μg of protein/mL) was incubated together with a test compound and [^35S]GTPγS (manufactured by PerkinElmer) (final concentration: 0.05 nmol/L) in an assay buffer (50 mmol/L Tris-HCl buffer (pH 7.4), 100 mmol/L NaCl, 1 mmol/L EDTA, 3 mmol/L MgCl2, and 0.1% bovine serum albumin) containing 20 μmol/L guanosine 5′-diphosphate (GDP) at 30° C. for 1 hour, and the resulting mixture was filtered using a glass filter GF/B (manufactured by Whatman). After the glass filter was washed with the assay buffer, the radioactivity on the glass filter was measured using a liquid scintillation counter (TRI-CARB 2700TR, manufactured by Packard). The binding amount in the presence of 10 μmol/L GTPγS was considered to be a non-specific binding amount, and a difference between the total binding amount and the non-specific binding amount was considered to be a specific binding amount. The ratio of increase in the specific binding amount in the presence of the test compound to the specific binding amount in the absence of the test compound was considered to be an agonistic activity of the test compound. The concentration of the test compound that produces 50% of the maximum effect (EC50 value) was calculated by performing a nonlinear regression analysis using the concentration-response data. The percentage of the maximum effect of the test compound (Emax value) was calculated by considering the maximum effect of CP55940 (manufactured by Tocris) measured at the same time as 100%.

[3] = tested on: rats with chronic constriction nerve injury; assay: Analgesic effect in rats with chronic constriction nerve injury (von Frey filament); format: in vivo, rat; conditions: oral, dose of 50 mg/kg or less, one hour after administration, von Frey filaments
Excerpt: Rats with chronic constriction nerve injury were produced by partially modifying the method of Mosconi and Kruger et al. (Pain, vol. 64, pp. 37-57 (1996))
Male Crl:CD(SD) rats were used for the experiments. Under pentobarbital anesthesia, the sciatic nerve of the left hind limb of the rat was exfoliated, and the exfoliated region was wrapped with a polyethylene tube (trade name: Intramedic, size: PE-60, manufactured by Becton Dickinson and Company) of 2 mm in length. On days 14 to 21 after the surgery, the rats were placed in an acrylic connected cage with a wire mesh floor (900 mm (length)×210 mm (depth)×140 mm (height)) consisting of 4 cages connected in a row and allowed to acclimate to the environment for at least 20 minutes, and then, the pain was evaluated.
The von Frey filament (trade name: touch test sensory evaluator, Model number: model 58011, manufactured by Muromachi Kikai) was used to evaluate pain, and the results were calculated as a pain threshold. That is, by using a von Frey filament of different stimulus intensity, stimulation was given to the plantar surface of the injured side of rats with chronic constriction nerve injury, and the stimulus intensity to cause paw withdrawal response was obtained. Then, the 50% pain threshold (Paw withdrawal threshold) (g) was calculated by the up down method of Dixon [Annual Review of Pharmacology and Toxicology, vol. 20, pp. 441-462 (1980)].
In the evaluation of the test compound, rats with 50% pain threshold of less than 4 g were used, and the test compound was dissolved in a 0.5% aqueous methyl cellulose solution and orally administered at a dose of 5 mL/kg. One hour after the administration, the pain threshold was measured using von Frey filaments.

[4] = rat spleen membrane, [3H]CP55940 0.5 nmol/L, 25° C., 1 hour, read-out: Ki value against the CB2 receptor

| Structure (SMILES) | Ki [1, 4] [µM] | EC50 [2] [µM] | Emax [2] [%] | Ki [1] [µM] | 50% pain threshold (paw withdrawal threshold) [3] |
| --- | --- | --- | --- | --- | --- |
| CC(C)(C)c1nc(-c2cccc([N+](=O)[O-])c2)cn1CC1CCCCC1 [Compound 28, 2-tert-Butyl-1-cyclohexylmethyl-4-(3-nitrophenyl)-1H-imidazole] | < 1 | – | – | – | – |
| CCN(CC)C(=O)c1cccc(-c2cn(CC3CCCCC3)c(C(C)(C)C)n2)c1 [Compound 32, 3-(2-tert-Butyl-1-cyclohexylmethyl-1H-imidazol-4-yl)-N,N-diethylbenzamide] | < 1 | – | – | – | – |
| COc1cccc(-c2cn(CC3CCCCC3)c(CC(C)(C)C)n2)c1 [Compound 38, 1-Cyclohexylmethyl-2-(2,2-dimethylpropyl)-4-(3-methoxyphenyl)-1H-imidazole] | – | < 1 | > 30 | – | – |
| CC(C)(C)c1nc(-c2cccc([N+](=O)[O-])c2)cn1CC1CCCCO1 (stereo not drawn) [Compound 42, 2-tert-Butyl-4-(3-nitrophenyl)-1-(tetrahydropyran-2-ylmethyl)-1H-imidazole] | – | < 1 | > 30 | < 1 | – |
| CC(C)C(=O)c1cccc(-c2cn(CC3CCOCC3)c(C(C)(C)C)n2)c1 [Compound 47, 1-{3-[2-tert-Butyl-1-(tetrahydropyran-4-ylmethyl)-1H-imidazol-4-yl]phenyl}-2-methylpropan-1-one hydrochloride] | < 1 | – | – | – | – |
| CC(C)(C)c1nc(-c2cccc(C(=O)c3ccccc3)c2)cn1CC1CCOCC1 [Compound 48, {3-[2-tert-Butyl-1-(tetrahydropyran-4-ylmethyl)-1H-imidazol-4-yl]phenyl}phenylmethanone hydrochloride] | – | < 1 | > 30 | < 1 | – |
| CC(=O)c1cccc(-c2cn(CC3CCOCC3)c(C(C)(C)C)n2)c1 [Compound 49, 1-{3-[2-tert-Butyl-1-(tetrahydropyran-4-ylmethyl)-1H-imidazol-4-yl]phenyl}ethanone] | < 1 | < 1 | > 30 | – | – |
| CCNC(=O)c1cccc(-c2cn(CC3CCOCC3)c(C(C)(C)C)n2)c1 [Compound 72, 3-(2-tert-Butyl-1-(tetrahydropyran-4-ylmethyl)-1H-imidazol-4-yl)-N-ethylbenzamide] | – | < 1 | > 30 | < 1 | – |
| CCN(CC)c1cccc(-c2cn(CC3CCOCC3)c(C(C)(C)C)n2)c1 [Compound 77, {3-[2-tert-Butyl-1-(tetrahydropyran-4-ylmethyl)-1H-imidazol-4-yl]phenyl}-diethylamine] | – | < 1 | > 30 | < 1 | – |
| CC(C)(C)c1nc(-c2cccc(C(=O)N(CC(F)(F)F)CC(F)(F)F)c2)cn1CC1CCOCC1 [Compound 82, 3-(2-tert-Butyl-1-(tetrahydropyran-4-ylmethyl)-1H-imidazol-4-yl)-N,N-bis(2,2,2-trifluoroethyl)benzamide] | – | < 1 | > 30 | < 1 | – |
| CC(C)(C)c1nc(-c2cncc(Br)c2)cn1CC1CCOCC1 [Compound 84, 3-Bromo-5-[2-tert-Butyl-1-(tetrahydropyran-4-ylmethyl)-1H-imidazol-4-yl]pyridine] | < 1 | – | – | – | – |
| CC(C)(C)c1nc(C=CC(=O)N(CC(F)(F)F)CC(F)(F)F)cn1CC1CCOCC1 [Compound 90, 3-(2-tert-Butyl-1-(tetrahydropyran-4-ylmethyl)-1H-imidazol-4-yl)-N,N-bis(2,2,2-trifluoroethyl)acrylamide] | < 1 | – | – | – | – |
| CCCN(CCC)C(=O)C=Cc1cn(CC2CCOCC2)c(C(C)(C)C)n1 [Compound 92, 3-(2-tert-Butyl-1-(tetrahydropyran-4-ylmethyl)-1H-imidazol-4-yl)-N,N-dipropylacrylamide] | < 1 | – | – | – | – |
| CN(C)C(=O)c1cc(-c2cn(CC3CCOCC3)c(C(C)(C)C)n2)cs1 [Compound 133, 4-[2-tert-Butyl-1-(tetrahydropyran-4-ylmethyl)-1H-imidazol-4-yl]thiophene-2-carboxylic acid dimethylamide] | < 1 | – | – | – | significantly increased the pain threshold |
| CN(C)C(=O)c1cccc(-c2cn(CC3(F)CCOCC3)c(C(C)(C)C)n2)c1 [Compound 187, 3-[2-tert-Butyl-1-(4-fluorotetrahydropyran-4-ylmethyl)-1H-imidazol-4-yl]-N,N-dimethylbenzamide] | < 1 | – | – | – | significantly increased the pain threshold |
| CN(C)C(=O)c1cc(-c2cn(CC3(F)CCOCC3)c(C(C)(C)C)n2)cs1 [Compound 188, 4-[2-tert-Butyl-1-(4-fluorotetrahydropyran-4-ylmethyl)-1H-imidazol-4-yl]-N,N-dimethylthiophene-2-carboxamide] | < 1 | – | – | – | – |
| CN(CC#N)C(=O)c1cncc(-c2cn(CC3CCOCC3)c(C(C)(C)C)n2)n1 [Compound 207, 6-[2-tert-Butyl-1-(tetrahydropyran-4-ylmethyl)-1H-imidazol-4-yl]-N-cyanomethyl-N-methylpyrazine-2-carboxamide] | < 1 | – | – | – | significantly increased the pain threshold |
| CCOc1ccc(Cc2nc(-c3cccc(OC)c3)cn2CC2CCOCC2)cc1 [Compound o, 2-(4-Ethoxybenzyl)-4-(3-methoxyphenyl)-1-(tetrahydro-pyran-4-ylmethyl)-1H-imidazole] | < 1 | – | – | – | – |
| CCOc1ccc(Cc2nc(-c3cccc(C#N)c3)cn2CC2CCOCC2)cc1 [Compound p, 3-[2-(4-Ethoxybenzyl)-1-(tetrahydropyran-4-ylmethyl)-1H-imidazol-4-yl]benzonitrile] | < 1 | – | – | – | – |
| CCOc1ccc(Cc2nc(-c3cccc(C(=O)N(CC)CC)c3)cn2CC2CCOCC2)cc1 [Compound q, 3-[2-(4-Ethoxybenzyl)-1-(tetrahydropyran-4-ylmethyl)-1H-imidazol-4-yl]-N,N-diethylbenzamide] | < 1 | – | – | – | – |
